Test results: patent US20180156826A1, “COMPOSITIONS AND METHODS FOR DIAGNOSIS OF AUTISM SPECTRUM DISORDER” (The Board of Regents of the University of Texas System, priority 2015, published 2018)
Square brackets hold non-standard residues; d marks the D form. Peptide text beside a SMILES is read from it. ξ: configuration not given here. N(3,4-(MeO)2phenethyl)Gly = COc1ccc(CCNCC(=O)O)cc1OC; Gly(N-(CH2)3OMe) = COCCCNCC(=O)O; Gly(N-cHex) = O=C(O)CNC1CCCCC1; Nleu = CC(C)CNCC(=O)O; Nme = COCCNCC(=O)O; ξC = NC(CS)C(=O)O

How the values were obtained:
serum IgG1 = experiment: Peptoid ELISA, IgG1 subclass detection; format: binding, human
Procedure: (§1) Peptoid compounds were immobilized onto maleimide-activated 96-well plates (Pierce Biotechnology, Rockford, Ill.) by dissolving them to 0.03-0.05 mM in a 0.1 M sodium phosphate, 0.15 M sodium chloride, 10 mM EDTA solution adjusted to pH 7.2 and incubating with shaking for 3 hrs at RT. Plates were washed with PBST and blocked with a 5% goat serum (Thermo Scientific, Rockford, Ill.) in PBST solution for 1 hr at RT. Plates were washed again and incubated with target (serum) samples diluted in blocking buffer (1:1 PBST-1% BSA and SuperBlock) for 2 hrs at RT. After washing, plates were incubated with Goat anti-Human IgG-Fc-HRP conjugate (Bethyl Laboratories, Montgomery, Tex.) diluted 1:30,000 in PBST-1% BSA or mouse anti-human IgG1 (hinge)-HRP conjugate (SouthernBiotech, Birmingham, Ala.) diluted 1:1000 in PBST-1% BSA for 30 min at RT. After another wash, plates were incubated in TMB substrate for 16 min at RT and stopped with 2M H2SO4. Plates were read at 450 nm. All samples were run in duplicate, and every assay contained ASD and TD serum pool samples to serve as internal controls. Results for individual samples were assessed as ratios to the ASD serum pool so as to control for plate-to-plate variation.

serum IgG = experiment: Peptoid ELISA, total IgG detection with serum pools; format: binding, human; settings: pooled serum of 10 TD males vs 10 ASD males
Procedure: as §1
Using the same two serum pools as used during screening, the “hit” peptoids were then tested by ELISA for their ability to bind IgG from the two pools. […]

COCCCN(CC(=O)N(CCc1ccc(OC)c(OC)c1)CC(=O)N(CC(=O)N(CC(=O)N(CCCOC)CC(=O)N(CC(=O)N(CCOC)CC(=O)NC(CS)C(N)=O)C1CCCCC1)CC(C)C)C1CCCCC1)C(=O)CNCCc1ccc(OC)c(OC)c1 (stereo not shown) [ASD1] (H-[N(3,4-(MeO)2phenethyl)Gly][Gly(N-(CH2)3OMe)][N(3,4-(MeO)2phenethyl)Gly][Gly(N-cHex)][Nleu][Gly(N-(CH2)3OMe)][Gly(N-cHex)][Nme][ξC]-NH2)
ASD1 binding, ASD females (serum IgG1; ASD female serum samples, n=10): 1.76±0.81 | ASD1 binding, TD females (serum IgG1; TD female serum samples, n=20): 1.97±0.38 | ASD1 binding of IgG1 from ASD males (serum IgG1; individual ASD male serum samples, n=50, 1:100 dilution, ratio of sample absorbance to control serum pool, error SEM): 1.33±0.31 | ASD1 binding of IgG1 from TD males (serum IgG1; individual TD male serum samples, n=43, 1:100 dilution, ratio of sample absorbance to control serum pool, error SEM): 2.88±0.55 | ASD1 binding of IgG1 from older adult males (serum IgG1; older adult male serum, n=53, compared with ASD and TD males): did not differ from that of the ASD males, but was significantly lower than that of the TD males | differentiation in binding between the serum pools, secondary antibody specific to IgG1 subclass (serum IgG1; pooled serum of 10 TD males vs 10 ASD males): nearly four-fold | differentiation in binding between the serum pools, total IgG (serum IgG): two-fold
